In patent publication US11427553B2, “Dihydrooxadiazinones” (Bayer Aktiengesellschaft, priority 2017, dated 2022):
One block for each compound: values may come before it.

How the values were obtained:
[1] = system: HeLa cells; assay: Assay 1 cell proliferation measurement (CTG, 72 h), HeLa; format: cell-based, human; details: Homo sapiens, HeLa; Assay 1, 72 h, Cell Titer Glo; read-out: HeLa IC50 [nM] (Cervical cancer)
Method in brief: (§1)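 Seed cells, incubate overnight at 37 °C; measure baseline viability (CTG, 0 h plate); dose compound in a 10-step 2.5-fold series (max generally 100 nM final, DMSO 0.3%) for 72 h; read CTG luminescence; fit IC50 with 4 parameters.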

[2] = system: SK-MEL-3 cells; assay: Assay 1 cell proliferation measurement (CTG, 72 h), SK-MEL-3; format: cell-based, human; details: Homo sapiens, SK-MEL3; Assay 1, 72 h, Cell Titer Glo; read-out: SK-MEL-3 IC50 [nM] (melanoma)
Method in brief: as §1

[3] = biological target: human full length PDE3A (Homo sapiens (Human), UniProt Q14432); assay: Assay 4 PDE3A enzyme inhibition (3H-cAMP SPA); format: biochemical; details: Sf9 cell extract
human full length PDE3A, sequence (Q14432 whole entry): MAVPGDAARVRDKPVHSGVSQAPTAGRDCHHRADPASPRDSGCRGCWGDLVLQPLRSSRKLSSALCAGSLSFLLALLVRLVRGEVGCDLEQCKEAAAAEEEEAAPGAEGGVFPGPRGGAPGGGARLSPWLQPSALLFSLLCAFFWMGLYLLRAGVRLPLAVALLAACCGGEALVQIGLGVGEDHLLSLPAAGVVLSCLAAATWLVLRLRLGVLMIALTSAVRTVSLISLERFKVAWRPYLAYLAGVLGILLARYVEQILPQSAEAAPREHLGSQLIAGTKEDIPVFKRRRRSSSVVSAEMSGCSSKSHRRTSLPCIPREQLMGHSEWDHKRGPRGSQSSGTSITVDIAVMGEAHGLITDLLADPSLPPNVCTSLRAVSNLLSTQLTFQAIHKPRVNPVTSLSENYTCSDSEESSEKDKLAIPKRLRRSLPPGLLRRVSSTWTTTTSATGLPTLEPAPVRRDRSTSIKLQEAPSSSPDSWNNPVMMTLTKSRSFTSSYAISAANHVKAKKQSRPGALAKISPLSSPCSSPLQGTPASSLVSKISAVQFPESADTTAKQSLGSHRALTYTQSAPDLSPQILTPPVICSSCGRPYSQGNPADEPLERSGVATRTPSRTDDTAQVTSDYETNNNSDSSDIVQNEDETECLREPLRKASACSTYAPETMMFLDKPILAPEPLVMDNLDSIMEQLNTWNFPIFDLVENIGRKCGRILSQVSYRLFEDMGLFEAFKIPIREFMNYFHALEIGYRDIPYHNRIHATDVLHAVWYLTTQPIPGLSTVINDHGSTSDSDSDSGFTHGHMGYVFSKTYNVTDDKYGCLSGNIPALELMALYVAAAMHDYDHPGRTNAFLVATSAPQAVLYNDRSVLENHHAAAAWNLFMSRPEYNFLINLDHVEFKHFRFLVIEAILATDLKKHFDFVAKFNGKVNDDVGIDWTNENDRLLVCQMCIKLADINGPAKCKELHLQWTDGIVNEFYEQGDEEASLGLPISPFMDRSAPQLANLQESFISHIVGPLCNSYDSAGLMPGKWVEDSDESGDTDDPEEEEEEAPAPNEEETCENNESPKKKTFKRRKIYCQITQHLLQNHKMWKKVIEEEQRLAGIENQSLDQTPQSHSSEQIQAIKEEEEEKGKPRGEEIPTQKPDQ
Method in brief: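 In this SPA format, the 60-min room-temperature reaction used 0.025 μCi [8-3H]cAMP and diluted full-length PDE3A from Sf9 cells. Percentage activity was plotted against log compound concentration to derive IC50.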

[4] = biological target: human full length PDE3B (Homo sapiens (Human), UniProt Q13370); assay: Assay 5 PDE3B enzyme inhibition (3H-cAMP SPA); format: biochemical; details: Sf9 cell extract
human full length PDE3B, sequence (Q13370 whole entry): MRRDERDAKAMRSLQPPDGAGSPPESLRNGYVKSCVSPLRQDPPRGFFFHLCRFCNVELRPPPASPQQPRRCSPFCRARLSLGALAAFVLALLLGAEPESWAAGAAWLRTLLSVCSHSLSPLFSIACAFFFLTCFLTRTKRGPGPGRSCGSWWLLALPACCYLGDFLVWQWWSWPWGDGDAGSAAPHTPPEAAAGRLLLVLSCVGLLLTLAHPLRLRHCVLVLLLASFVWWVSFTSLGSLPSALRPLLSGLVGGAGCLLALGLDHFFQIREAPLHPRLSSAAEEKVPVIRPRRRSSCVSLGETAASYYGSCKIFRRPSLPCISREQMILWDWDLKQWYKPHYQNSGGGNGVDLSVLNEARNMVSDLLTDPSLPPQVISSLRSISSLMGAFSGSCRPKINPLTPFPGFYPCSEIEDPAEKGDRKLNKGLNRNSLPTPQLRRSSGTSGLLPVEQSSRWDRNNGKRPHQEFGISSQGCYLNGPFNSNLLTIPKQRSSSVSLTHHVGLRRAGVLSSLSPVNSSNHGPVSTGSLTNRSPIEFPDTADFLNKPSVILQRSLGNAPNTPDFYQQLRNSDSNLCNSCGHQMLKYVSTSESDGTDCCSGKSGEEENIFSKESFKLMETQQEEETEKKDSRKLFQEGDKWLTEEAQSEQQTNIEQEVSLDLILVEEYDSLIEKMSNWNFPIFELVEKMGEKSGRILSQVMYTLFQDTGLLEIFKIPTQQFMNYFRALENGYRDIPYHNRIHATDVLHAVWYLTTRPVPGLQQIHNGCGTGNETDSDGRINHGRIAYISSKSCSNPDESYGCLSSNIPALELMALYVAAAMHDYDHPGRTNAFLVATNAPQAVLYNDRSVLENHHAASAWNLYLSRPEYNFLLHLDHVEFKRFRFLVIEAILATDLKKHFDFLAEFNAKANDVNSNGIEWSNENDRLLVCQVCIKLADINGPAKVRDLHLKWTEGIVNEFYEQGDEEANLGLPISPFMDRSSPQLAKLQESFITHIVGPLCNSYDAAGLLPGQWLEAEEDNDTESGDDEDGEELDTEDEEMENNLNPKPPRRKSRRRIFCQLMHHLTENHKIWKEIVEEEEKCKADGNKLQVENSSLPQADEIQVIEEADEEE
Method in brief: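 Hydrolysis of tritiated cAMP by Sf9-expressed full-length human PDE3B proceeded 60 min at room temperature in Tris buffer pH 7.5 containing Mg2+, EDTA and BSA, with enzyme dilution keeping substrate consumption below 70%. IC50 derived from percent activity versus log compound concentration.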

IC50 [1]: 4 nM
IC50 [2]: 9 nM
IC50 [3]: 130 nM
IC50 [4]: 270 nM
SMILES: Cc1ccccc1-c1ccc(C2=NNC(=O)OC2)cc1F [Example 81, 5-(2-Fluoro-2′-methylbiphenyl-4-yl)-3,6-dihydro-2H-1,3,4-oxadiazin-2-one]

IC50 [1]: 4 nM
IC50 [2]: 9 nM
IC50 [3]: 200 nM
IC50 [4]: 320 nM
SMILES: O=C1NN=C(c2ccc(-c3ccc(F)cc3Cl)c(F)c2)CO1 [Example 82, 5-(2′-Chloro-2,4′-difluorobiphenyl-4-yl)-3,6-dihydro-2H-1,3,4-oxadiazin-2-one]

IC50 [1]: 6 nM
IC50 [2]: 25 nM
IC50 [3]: 84 nM
IC50 [4]: 210 nM
SMILES: Cc1cc(-c2ccc(C3=NNC(=O)OC3)cc2F)ccc1F [Example 86, 5-(2,4′-Difluoro-3′-methylbiphenyl-4-yl)-3,6-dihydro-2H-1,3,4-oxadiazin-2-one]

IC50 [1]: 18 nM
IC50 [2]: 40 nM
IC50 [3]: 50 nM
IC50 [4]: 110 nM
SMILES: Cc1ncccc1-c1ccc(C2=NNC(=O)OC2)cc1F [Example 96, 5-[3-Fluoro-4-(2-methylpyridin-3-yl)phenyl]-3,6-dihydro-2H-1,3,4-oxadiazin-2-one]

IC50 [1]: 5 nM
IC50 [2]: 8 nM
IC50 [3]: 65 nM
IC50 [4]: 130 nM
SMILES: Cc1ccc(-c2ccc(C3=NNC(=O)OC3)cc2F)cn1 [Example 97, 5-[3-Fluoro-4-(6-methylpyridin-3-yl)phenyl]-3,6-dihydro-2H-1,3,4-oxadiazin-2-one]

IC50 [1]: 5 nM
IC50 [2]: 8 nM
IC50 [3]: 100 nM
IC50 [4]: 120 nM
SMILES: O=C1NN=C(c2ccc(-c3cc(F)c(F)cc3F)c(F)c2)CO1 [Example 98, 5-(2,2′,4′,5′-Tetrafluoro[1,1′-biphenyl]-4-yl)-3,6-dihydro-2H-1,3,4-oxadiazin-2-one]

IC50 [1]: 5 nM
IC50 [2]: 11 nM
IC50 [3]: 88 nM
IC50 [4]: 100 nM
SMILES: O=C1NN=C(c2ccc(-c3ccc(F)c(F)c3F)c(F)c2)CO1 [Example 99, 5-(2,2′,3′,4′-Tetrafluoro[1,1′-biphenyl]-4-yl)-3,6-dihydro-2H-1,3,4-oxadiazin-2-one]

IC50 [1]: 5 nM
IC50 [2]: 9 nM
IC50 [3]: 48 nM
IC50 [4]: 66 nM
SMILES: O=C1NN=C(c2ccc(-c3cc(F)ccc3F)c(F)c2)CO1 [Example 100, 5-(2,2′,5′-Trifluoro[1,1′-biphenyl]-4-yl)-3,6-dihydro-2H-1,3,4-oxadiazin-2-one]

IC50 [1]: 23 nM
IC50 [2]: 40 nM
IC50 [3]: 170 nM
IC50 [4]: 280 nM
SMILES: Nc1ccccc1-c1ccc(C2=NNC(=O)OC2)cc1F [Example 102, 5-(2′-Amino-2-fluoro[1,1′-biphenyl]-4-yl)-3,6-dihydro-2H-1,3,4-oxadiazin-2-one]

IC50 [1]: 3 nM
IC50 [2]: 6 nM
IC50 [3]: 66 nM
IC50 [4]: 140 nM
SMILES: Cc1ccc(-c2ccc(C3=NNC(=O)OC3)cc2F)cc1N [Example 103, 5-(3′-Amino-2-fluoro-4′-methyl[1,1′-biphenyl]-4-yl)-3,6-dihydro-2H-1,3,4-oxadiazin-2-one]

IC50 [1]: 37 nM
IC50 [2]: 17 nM
IC50 [3]: 35 nM
IC50 [4]: 58 nM
SMILES: O=C1NN=C(c2ccc(-c3cccc(O)c3)c(F)c2)CO1 [Example 104, 5-(2-Fluoro-3′-hydroxy[1,1′-biphenyl]-4-yl)-3,6-dihydro-2H-1,3,4-oxadiazin-2-one]

IC50 [1]: 9 nM
IC50 [2]: 16 nM
IC50 [3]: 120 nM
IC50 [4]: 240 nM
SMILES: O=C1NN=C(c2ccc(-c3ccccc3O)c(F)c2)CO1 [Example 106, 5-(2-Fluoro-2′-hydroxy[1,1′-biphenyl]-4-yl)-3,6-dihydro-2H-1,3,4-oxadiazin-2-one]

IC50 [1]: 6 nM
IC50 [2]: 12 nM
IC50 [3]: 150 nM
IC50 [4]: 160 nM
SMILES: O=C1NN=C(c2ccc(-c3ccc(F)c(F)c3)c(F)c2)CO1 [Example 107, 5-(2,3′,4′-Trifluoro[1,1′-biphenyl]-4-yl)-3,6-dihydro-2H-1,3,4-oxadiazin-2-one]

IC50 [1]: 4 nM
IC50 [2]: 9 nM
IC50 [3]: 46 nM
IC50 [4]: 32 nM
SMILES: O=C1NN=C(c2ccc(-c3cccc(F)c3F)c(F)c2)CO1 [Example 109, 5-(2,2′,3′-Trifluoro[1,1′-biphenyl]-4-yl)-3,6-dihydro-2H-1,3,4-oxadiazin-2-one]

IC50 [1]: 8 nM
IC50 [2]: 14 nM
IC50 [3]: 100 nM
IC50 [4]: 140 nM
SMILES: O=C1NN=C(c2ccc(-c3cc(F)cc(F)c3)c(F)c2)CO1 [Example 110, 5-(2,3′,5′-Trifluoro[1,1′-biphenyl]-4-yl)-3,6-dihydro-2H-1,3,4-oxadiazin-2-one]

IC50 [1]: 6 nM
IC50 [2]: 10 nM
IC50 [3]: 170 nM
IC50 [4]: 230 nM
SMILES: Cc1ccc(-c2ccc(C3=NNC(=O)OC3)cc2F)c(C)c1 [Example 112, 5-(2-Fluoro-2′,4′-dimethyl[1,1′-biphenyl]-4-yl)-3,6-dihydro-2H-1,3,4-oxadiazin-2-one]

IC50 [1]: 2 nM
IC50 [2]: 6 nM
IC50 [3]: 210 nM
IC50 [4]: 215 nM
SMILES: Cc1ccc(-c2ccc(C3=NNC(=O)OC3)cc2F)cc1F [Example 113, 5-(2,3′-Difluoro-4′-methyl[1,1′-biphenyl]-4-yl)-3,6-dihydro-2H-1,3,4-oxadiazin-2-one]

More lines, now with the values behind:

SMILES: O=C1NN=C(c2ccc(C3=CCCC3)c(F)c2)CO1 [Example 83, 5-[4-(Cyclopent-1-en-1-yl)-3-fluorophenyl]-3,6-dihydro-2H-1,3,4-oxadiazin-2-one]
IC50 [1]: 3 nM
IC50 [2]: 6 nM
IC50 [3]: 100 nM
IC50 [4]: 250 nM

SMILES: CCc1ccccc1-c1ccc(C2=NNC(=O)OC2)cc1F [Example 84, 5-(2′-Ethyl-2-fluorobiphenyl-4-yl)-3,6-dihydro-2H-1,3,4-oxadiazin-2-one]
IC50 [1]: 19 nM
IC50 [2]: 48 nM
IC50 [3]: 150 nM
IC50 [4]: 320 nM

SMILES: COc1ccc(-c2ccc(C3=NNC(=O)OC3)cc2F)cn1 [Example 85, 5-[3-Fluoro-4-(6-methoxypyridin-3-yl)phenyl]-3,6-dihydro-2H-1,3,4-oxadiazin-2-one]
IC50 [1]: 7 nM
IC50 [2]: 13 nM
IC50 [3]: 33 nM
IC50 [4]: 78 nM

SMILES: Cc1cccc(-c2ccc(C3=NNC(=O)OC3)cc2F)c1 [Example 87, 5-(2-Fluoro-3′-methylbiphenyl-4-yl)-3,6-dihydro-2H-1,3,4-oxadiazin-2-one]
IC50 [1]: 10 nM
IC50 [2]: 32 nM
IC50 [3]: 81 nM
IC50 [4]: 230 nM

SMILES: Cc1ccc(-c2ccc(C3=NNC(=O)OC3)cc2F)cc1 [Example 88, 5-(2-Fluoro-4′-methylbiphenyl-4-yl)-3,6-dihydro-2H-1,3,4-oxadiazin-2-one]
IC50 [1]: 2 nM
IC50 [2]: 6 nM
IC50 [3]: 110 nM
IC50 [4]: 250 nM

SMILES: O=C1NN=C(c2ccc(-c3ccccc3)c(F)c2)CO1 [Example 89, 5-(2-Fluorobiphenyl-4-yl)-3,6-dihydro-2H-1,3,4-oxadiazin-2-one]
IC50 [1]: 2 nM
IC50 [2]: 5 nM
IC50 [3]: 110 nM
IC50 [4]: 140 nM

SMILES: Nc1cc(-c2ccc(C3=NNC(=O)OC3)cc2F)ccn1 [Example 90, 5-[4-(2-Aminopyridin-4-yl)-3-fluorophenyl]-3,6-dihydro-2H-1,3,4-oxadiazin-2-one]
IC50 [1]: 16 nM
IC50 [2]: 30 nM
IC50 [3]: 43 nM
IC50 [4]: 100 nM

SMILES: Nc1cccc(-c2ccc(C3=NNC(=O)OC3)cc2F)c1 [Example 91, 5-[4-(3-Aminophenyl)-3-fluoro-phenyl]-3,6-dihydro-1,3,4-oxadiazin-2-one]
IC50 [1]: 14 nM
IC50 [2]: 17 nM
IC50 [3]: 68 nM
IC50 [4]: 85 nM

SMILES: O=C1NN=C(c2ccc(-c3ccncc3)c(F)c2)CO1 [Example 93, 5-[3-Fluoro-4-(pyridin-4-yl)phenyl]-3,6-dihydro-2H-1,3,4-oxadiazin-2-one]
IC50 [1]: 7 nM
IC50 [2]: 13 nM
IC50 [3]: 50 nM
IC50 [4]: 100 nM

SMILES: Cc1ncc(-c2ccc(C3=NNC(=O)OC3)cc2F)cn1 [Example 94, 5-[3-Fluoro-4-(2-methylpyrimidin-5-yl)phenyl]-3,6-dihydro-2H-1,3,4-oxadiazin-2-one]
IC50 [1]: 16 nM
IC50 [2]: 36 nM
IC50 [3]: 91 nM
IC50 [4]: 280 nM

SMILES: COc1cc(-c2ccc(C3=NNC(=O)OC3)cc2F)ccn1 [Example 95, 5-[3-Fluoro-4-(2-methoxypyridin-4-yl)phenyl]-3,6-dihydro-2H-1,3,4-oxadiazin-2-one]
IC50 [1]: 33 nM
IC50 [2]: > 100 nM
IC50 [3]: 37 nM
IC50 [4]: 79 nM

SMILES: N#Cc1ccc(-c2ccc(C3=NNC(=O)OC3)cc2F)cc1 [Example 101, 2′-Fluoro-4′-(2-oxo-3,6-dihydro-2H-1,3,4-oxadiazin-5-yl)[1,1′-biphenyl]-4-carbonitrile]
IC50 [1]: 2 nM
IC50 [2]: 4 nM
IC50 [3]: 28 nM
IC50 [4]: 39 nM

SMILES: O=C1NN=C(c2ccc(-c3ccc(O)cc3)c(F)c2)CO1 [Example 105, 5-(2-Fluoro-4′-hydroxy[1,1′-biphenyl]-4-yl)-3,6-dihydro-2H-1,3,4-oxadiazin-2-one]
IC50 [1]: 8 nM
IC50 [2]: 15 nM
IC50 [3]: 48 nM
IC50 [4]: 100 nM

SMILES: O=C1NN=C(c2ccc(-c3cccnc3)c(F)c2)CO1 [Example 108, 5-[3-Fluoro-4-(pyridin-3-yl)phenyl]-3,6-dihydro-2H-1,3,4-oxadiazin-2-one]
IC50 [1]: 6 nM
IC50 [2]: 13 nM
IC50 [3]: 26 nM
IC50 [4]: 22 nM
